How the values were obtained:
[1] = system: B57BL6 Mice; assay: Anti-FVIII titer analysis in mice given FVIII co-mixed with compound SC QW 4 weeks, then FVIII re-challenge (Example 1); assay type: in vivo
Procedure: (§1) OPLT was dissolved in sterile PBS, and pH was adjusted to approximately 7.5. OPLS, a comparator compound, was dissolved in sterile PBS, and pH was adjusted to approximately 7.5. FVIII in PBS was used as a control. For treatment, FVIII was co-mixed with OPLT, OPLS or diluted in PBS before administration, as per group assignment for each animal. For re-challenge, FVIII was administered alone SC to all animals regardless of group assignment. […] For a head-to-head comparison, 5 mg/injection was selected for OPLT. FVIII was dosed at 1 μg/injection.
The study was conducted in two parts: a treatment phase and a re-challenge phase. The objective of the treatment phase was to test the ability of OPLT to reduce the immunogenicity of FVIII as an antigen compared to animals administered FVIII or FVIII+OPLS. Animals were injected with FVIII, FVIII+OPLT, or FVIII+OPLS SC QW for 4 weeks. Blood samples were collected for anti-FVIII titer analysis after a one-week washout period from the last dose. The objective of the re-challenge phase of the study was to evaluate the duration of tolerance. Animals that have been successfully tolerized toward FVIII will not mount a robust immune response towards FVIII upon subsequent exposure to FVIII. After the washout period, animals were injected with (1 μg) FVIII SC QW for 2 weeks. Blood samples were collected one week after each FVIII injection for anti-FVIII titer analysis.

[2] = system: FoxP3+/CD4+ T-cell; assay: Ex vivo flow cytometry of splenocytes for FoxP3+/CD4+ T-cells after FVIII treatment period (Example 1); assay type: in vivo, mice
Procedure: as §1
One week after the last dose in the treatment period, one animal from each group was selected at random for ex vivo analysis of the T-cell population. Spleens were collected and a single-cell suspension was prepared for cellular phenotyping by flow cytometry. Cells were stained and gated for CD4+ T-cells. FoxP3 expression level was evaluated for each animal.

[3] = system: B57BL6 Mice; assay: Anti-GAA titer analysis in mice given GAA with OPLT or liposomal OBLT, then GAA re-challenge (Example 2); assay type: in vivo
Procedure: OPLT and OBLT were dissolved in sterile PBS, and pH was adjusted to approximately 7.5. Liposomal OBLT was prepared using DMPC. GAA in PBS was used as a control. For the tolerance induction (or treatment) period, GAA was co-mixed with OPLT or liposomal OBLT, or diluted in PBS before administration as per group assignment for each animal. For the re-challenge protocol, GAA was administered IV alone to all animals regardless of group assignment. GAA was administered with 5 mg of OPLT SC QW. […] For all SC groups, GAA was dosed at 1 μg/injection (1 μg/week). For PO groups, GAA was dosed at 0.14 μg/dose QD (approximately 1 μg/week).
The objective of the treatment phase was to test the ability of OPLT or liposomal OBLT to reduce the immunogenicity of GAA, as an antigen, compared to animals administered GAA alone. Animals were injected with GAA, GAA+OPLT, or GAA+liposomal OBTL SC QW for 4 weeks. Blood samples were collected for anti-GAA analysis after a one-week washout period from the last dose. For oral tolerance, animals were administered GAA or GAA+liposomal OBLT PO, QD for 4 weeks. GAA was also administered SC QW to both groups during the treatment period. Blood samples were collected for anti-GAA titer analysis after a one-week washout period from the last dose.
The objective of the re-challenge phase of the study was to evaluate the duration of tolerance. […] After the washout period, animals were injected with (1 μg) GAA SC QW for 2 weeks. Blood samples were collected one week after each injection for anti-GAA titer analysis.

[4] = system: FoxP3+/CD4+ T-cells; assay: Splenocytes cultured 3 days with anti-CD3/anti-CD28 with or without OPLT, percent FoxP3+/CD4+ T-cells (Example 6); assay type: cell-based, C57BL/6 mice; conditions: 72-hour incubation
Procedure: (§2) OPLT was dissolved in sterile PBS at 100 μM, and pH was adjusted to approximately 7.5. Splenocytes from naïve C57BL/6 mice were stained with CFSE, prepared, cultured, and dosed. Cells were seeded at 2×10^5 cells/well.
To evaluate the effects of OPLT on FoxP3+/CD4+ T-cells, splenocytes were cultured for 3 days in presence of anti-CD3/anti-CD28 with and without 1.85 μg/ml (10 μM) OPLT. Cells were harvested at the end of a 72-hour incubation period and percent FoxP3+/CD4+ T-cells was determined by flow cytometry.

[5] = system: TLR7; assay: TNF-α production by splenocytes in response to TLR7 ligand ssPolyU; assay type: cell-based, C57BL/6 mice; conditions: for TNF-α mean: 48 hours, OPLT 1.85 μg/ml, dexamethasone 100 μg/ml, rapamycin 625 μg/ml
Procedure: as §2
To evaluate the effects of OPLT on cytokine production by splenocytes in response to different TLR ligands, splenocytes were incubated with one of the following TLR ligands in triplicate: PGN, LPS, ODN CPG, dsRNA, or ssRNA, as per group assignment. Cells were then treated as follows: • Control: No treatment; • OPLT: Cells were dosed with 1.85 μg/ml; • Dexamethasone: Cells were dosed with 100 μg/ml; • Rapamycin: Cells were dosed with 625 μg/ml. Cells were incubated for 48 hours before collecting the supernatant for TNF-α analysis.
The supernatant was collected for TNF-α analysis by ELISA.

[6] = weeks 1 and 2 of re-challenge with FVIII alone SC QW

N[C@@H](Cc1ccc(OP(=O)(O)O)cc1)C(=O)O [OPLT, O-phospho-L-tyrosine]
inducing sustained immunotolerization toward FVIII ([1]; OPLT versus OPLS, 5 mg/injection each): more effective than OPLS
anti-FVIII titers versus FVIII control group ([1]; end of treatment after one-week washout): statistically lower than the FVIII control group
animals that developed anti-FVIII antibodies ([1]; end of treatment after one-week washout, 5 mg/injection + FVIII SC QW 4 weeks, FVIII control 8/8): 3/8
average anti-FVIII titer in re-challenge period [1, 6]: lower titer than animals in the OPLS+FVIII and the FVIII control group
immune response to FVIII re-challenge [1, 6]: did not develop a robust immune response
increase in FoxP3+/CD4+ compared to the FVIII alone group ([2]; 5 mg/injection co-mixed with FVIII 1 μg SC QW 4 weeks, splenocytes of one animal per group one week after last dose): 188%
increase in FoxP3+/CD4+ compared to OPLS+FVIII treatment ([2]; 5 mg/injection co-mixed with FVIII SC QW 4 weeks): 73%
FoxP3+/CD4+ T-cell (flow cytometry of splenocytes) ([2]; 5 mg/injection co-mixed with FVIII SC QW 4 weeks, one animal per group, FVIII alone 2.94): 8.47
animals that developed anti-GAA titers ([3]; SC QW 4 weeks, 5 mg OPLT + GAA 1 μg, after one-week washout, controls 6/6): 4/6
anti-GAA titers versus control groups ([3]; SC QW 4 weeks, OPLT 5 mg, liposomal OBLT 50 μM (1.3 μg OBLT/injection), after one-week washout): statistically lower than the controls and comparators
immune response to GAA re-challenge ([3]; SC treatment group, weeks 1 and 2 of re-challenge, statistically significant at week 2 only): did not develop a robust immune response
increase in FoxP3+/CD4+ T-cells versus untreated cells ([4]; 10 μM (1.85 μg/ml) OPLT, anti-CD3/anti-CD28): 118%
percent FoxP3+/CD4+ T-cells ([4]; 10 μM OPLT, untreated 12.7%): 27.7%
TNF-α mean ([5]; Poly U 0 ng/ml): 0 pg/mL
TNF-α mean ([5]; Poly U 1 ng/ml, CTL 44): 36 pg/mL
TNF-α mean ([5]; Poly U 10 ng/ml, CTL 51): 40 pg/mL
TNF-α mean ([5]; Poly U 100 ng/ml, CTL 229): 43 pg/mL
effect on splenocytes' TNF-α response to the TLR7 ligand Poly U (in words) ([5]; high dose of Poly U, statistically significant): reduced splenocytes' response to a high dose of the TLR7 ligand Poly U

Reference: US20240173389A1, “Compositions and Methods For Reducing Immune Intolerance” (LAPIX THERAPEUTICS, INC., priority 2021, published 2024)
